# Assays:
# [1] = target: human Somatostatin 4 receptor (SSTR4) (Homo sapiens (Human), UniProt P31391); assay: cAMP assay with human Somatostatin 4 receptor; assay type: cell-based; details: hSSTR4 expressing H4 cells, inhibition of Forskolin-stimulated cAMP; read-out: SSTR4 agonism EC50
# Procedure: Method description for cAMP assay with human Somatostatin 4 receptor.
# The activation of the SSTR4 receptor (Gi coupled) causes an inhibition of intracellular cAMP after stimulation with Forskolin, which can be quantifiable by use of a suitable assay Kit and an adequate plate reader. This technique is used to characterize pharmacological effects of the SSTR4 receptor agonists by use of hSSTR4 expressing H4 cells.
# Compounds are dissolved and diluted in DMSO. The final test solution contains […]. The cAMP standard (Lance cAMP 384 Kit; PerkinElmer, Cat #AD0264) is prepared in assay buffer (HBSS with 0.1% BSA, 5 mM HEPES, […], pH 7.4) containing 1% DMSO and the cAMP standard curve is included at least on one plate. Cells are centrifuged and suspended in assay buffer (incl. 1:100 diluted Alexa antibody).
# For the assay 5 μl of a cell suspension (approximately 5000 cells/well)—incl. Alexa antibody (diluted 1:100) are added into a 384 well MTP microtitre plate excepting one row or column (depending on the plate layout), which is reserved for the standard curve. Then 2 μl of compound sample is added as concentration response curve (e.g. 1e-5 M to 6e-10 M), usually in triplicates. Each assay contains incubations with vehicle controls instead of compound as controls for non-inhibited cAMP generation (100% CTL; ‘high values’) and incubations with 1 μM Somatosatin as controls for full inhibition and background (0% CTL; ‘low values’). After approximately 10-15 min incubation time 3 μl Forskolin (dissolved in DMSO, final conc. 15 μM) is added. Then the plates are shaken briefly and incubated for 60 min at room temperature. After 60 min 10 μl of the detection mix is added into all wells followed by an additional incubation period of 1 h. The plates are read in a suitable plate reader.
# The analysis of the data is based on the “ratio” of the time-resolved fluorescence measurements of donor and acceptor fluorophore (Ex: 320 nm; Em1: 665 nm; Em2: 615 nm; ratio 665/615). From this ratio, cAMP concentrations are calculated from standard curve and the EC50 is estimated by least square curve fit program.
# human SSTR4 = human SSTR4 (Homo sapiens (Human), UniProt P31391); assay: Radioligand binding assay, human SSTR4
# Description: (§1) Radioligand Binding Assays
# (§2) Method description for binding assays with human Somatostatin receptors by use of CHO cell membranes expressing recombinant human SSTR1 or human SSTR2 or human SSTR3 or human SSTR4 or human SSTR5
# (§3) Receptor binding assays refer to a technique in which labeled receptor ligands are used to detect binding to a receptor. In competition experiments test compounds, which are not labeled, compete with the binding side of a labeled ligand. The displacement of the labeled ligand by the test compound leads to a decreased signal.
# (§4) For the binding experiments 200 μL of membrane homogenate from one of the following protein amounts is used: hSSTR1 (40 μg/well); hSSTR2 (25 μg/well); hSSTR3 (1.5 μg/well); hSSTR4 (0.5 μg/well); hSSTR5 (25 μg/well). The homogenate is incubated with 0.05 nM of radioligand ([3-125I-Tyr]-Somatostatin-(1-14)) in addition to increasing concentrations of a test compound or vehicle (100% binding) in a total volume of 250 μL using a Hepes buffer (10 mM, EDTA 1 mM, MgCl2 5 mM, pH7.6, BSA 0.5%, Bacitracin 0.003%, DMSO 1% for 180 min at room temperature. The incubation is terminated by filtration with ice cold NaCl 0.9% through polyethyleneimine treated (0.3%) GF/B glass fiber filters using a cell harvester. The protein-bound radioactivity is measured in a suitable reader. The non-specific binding is defined as radioactivity bound in the presence of 1 μM Somatostatin-14 during the incubation period.
# (§5) The analysis of the concentration-binding curves is performed by computer-assisted nonlinear least square curve fitting method using the model of one receptor binding site.
# human SSTR1 = human SSTR1 (Homo sapiens (Human), UniProt P30872); assay: Radioligand binding assay, human SSTR1
# Description: as §1, §2, §3, §4, §5
# human SSTR2 = human SSTR2 (Homo sapiens (Human), UniProt P30874); assay: Radioligand binding assay, human SSTR2
# Description: as §1, §2, §3, §4, §5
# human SSTR3 = human SSTR3 (Homo sapiens (Human), UniProt P32745); assay: Radioligand binding assay, human SSTR3
# Description: as §1, §2, §3, §4, §5
# human SSTR5 = human SSTR5 (Homo sapiens (Human), UniProt P35346); assay: Radioligand binding assay, human SSTR5
# Description: as §1, §2, §3, §4, §5
# [2] = Metabolic stability in human liver microsomes; assay type: in vitro ADME; details: pooled human liver microsomes, 37° C., 1 μM test compound, NADPH; for half-life at 1 μM: pH 7.6, read-out: Half-life t1/2
# Procedure: The metabolic stability of the compounds according to the invention may be investigated as follows:
# The metabolic degradation of the test compound is assayed at 37° C. with pooled human liver microsomes. The final incubation volume of 100 μl per time point contains TRIS buffer pH 7.6 at room temperature (0.1 M), magnesium chloride (5 mM), microsomal protein (1 mg/mL) and the test compound at a final concentration of 1 μM. Following a short preincubation period at 37° C., the reactions are initiated by addition of beta-nicotinamide adenine dinucleotide phosphate, reduced form (NADPH, 1 mM), and terminated by transferring an aliquot into solvent after different time points. After centrifugation (10000 g, 5 min), an aliquot of the supernatant is assayed by LC-MS/MS for the amount of parent compound. The half-life is determined by the slope of the semi-logarithmic plot of the concentration-time profile.
# Sequence of human SSTR2 (P30874 whole entry): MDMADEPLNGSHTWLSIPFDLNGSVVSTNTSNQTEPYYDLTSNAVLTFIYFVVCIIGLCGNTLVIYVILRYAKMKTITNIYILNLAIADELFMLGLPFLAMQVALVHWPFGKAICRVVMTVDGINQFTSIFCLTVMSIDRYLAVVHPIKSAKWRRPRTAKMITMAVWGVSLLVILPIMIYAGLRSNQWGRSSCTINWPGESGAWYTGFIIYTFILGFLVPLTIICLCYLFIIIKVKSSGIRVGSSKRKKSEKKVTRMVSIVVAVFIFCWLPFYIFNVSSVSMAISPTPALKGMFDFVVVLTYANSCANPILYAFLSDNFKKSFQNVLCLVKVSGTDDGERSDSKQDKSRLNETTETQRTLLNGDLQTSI
# Sequence of human SSTR1 (P30872 whole entry): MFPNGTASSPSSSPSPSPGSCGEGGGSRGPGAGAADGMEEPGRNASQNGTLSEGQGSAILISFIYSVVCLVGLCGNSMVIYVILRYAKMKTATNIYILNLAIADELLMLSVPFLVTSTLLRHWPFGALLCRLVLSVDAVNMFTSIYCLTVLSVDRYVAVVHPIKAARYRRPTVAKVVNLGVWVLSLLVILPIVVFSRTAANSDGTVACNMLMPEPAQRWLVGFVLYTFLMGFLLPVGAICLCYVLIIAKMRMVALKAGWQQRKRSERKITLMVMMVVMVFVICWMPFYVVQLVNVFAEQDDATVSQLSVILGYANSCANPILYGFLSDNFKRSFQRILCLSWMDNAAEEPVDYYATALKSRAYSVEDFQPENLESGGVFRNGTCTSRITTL
# Sequence of human SSTR5 (P35346 whole entry): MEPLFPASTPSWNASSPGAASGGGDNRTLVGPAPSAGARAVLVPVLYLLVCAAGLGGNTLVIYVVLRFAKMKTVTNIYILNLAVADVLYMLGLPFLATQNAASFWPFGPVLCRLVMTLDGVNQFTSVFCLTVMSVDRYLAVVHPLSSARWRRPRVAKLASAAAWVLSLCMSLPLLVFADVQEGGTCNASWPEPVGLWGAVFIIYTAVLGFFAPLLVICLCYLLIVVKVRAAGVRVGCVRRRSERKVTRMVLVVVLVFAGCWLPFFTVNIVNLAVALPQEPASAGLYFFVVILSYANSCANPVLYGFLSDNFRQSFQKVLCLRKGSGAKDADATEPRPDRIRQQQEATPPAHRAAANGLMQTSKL
# Sequence of human Somatostatin 4 receptor (SSTR4) (P31391 whole entry): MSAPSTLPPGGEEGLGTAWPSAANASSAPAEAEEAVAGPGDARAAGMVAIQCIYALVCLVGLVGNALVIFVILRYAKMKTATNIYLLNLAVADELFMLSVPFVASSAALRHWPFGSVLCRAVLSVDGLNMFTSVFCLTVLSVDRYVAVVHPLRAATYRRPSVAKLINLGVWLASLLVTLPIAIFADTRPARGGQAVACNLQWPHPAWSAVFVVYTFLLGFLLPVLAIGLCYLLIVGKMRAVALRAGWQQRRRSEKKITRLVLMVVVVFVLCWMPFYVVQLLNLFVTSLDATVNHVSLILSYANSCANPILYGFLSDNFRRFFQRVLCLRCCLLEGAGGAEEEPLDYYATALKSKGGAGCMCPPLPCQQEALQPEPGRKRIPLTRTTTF
# Sequence of human SSTR4 (P31391 whole entry): as above
# Sequence of human SSTR3 (P32745 whole entry): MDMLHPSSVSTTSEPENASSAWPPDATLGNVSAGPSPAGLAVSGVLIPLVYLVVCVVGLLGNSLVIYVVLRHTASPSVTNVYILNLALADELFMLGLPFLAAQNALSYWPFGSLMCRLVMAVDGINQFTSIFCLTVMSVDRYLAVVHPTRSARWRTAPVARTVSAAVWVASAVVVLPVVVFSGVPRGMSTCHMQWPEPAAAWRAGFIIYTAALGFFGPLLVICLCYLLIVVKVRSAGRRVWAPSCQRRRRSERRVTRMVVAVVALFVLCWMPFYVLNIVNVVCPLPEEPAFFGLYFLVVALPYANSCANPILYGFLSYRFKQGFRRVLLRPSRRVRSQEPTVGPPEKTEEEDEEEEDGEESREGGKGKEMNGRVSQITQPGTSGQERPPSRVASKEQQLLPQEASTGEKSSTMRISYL
SMILES,EC50 [1] [µM],Ki (human SSTR4) [µM],Ki (human SSTR1) [µM],Ki (human SSTR2) [µM],Ki (human SSTR3) [µM],Ki (human SSTR5) [µM],Half-life t1/2 [2] [h],half-life at 1 μM [2] [h]
CC(C)(NC(=O)c1cccc2c1OCCNC2)c1ccnc2ccccc12 [Example 6],0.0084,0.104,9.01,9.63,8.71,9.86,2.17,
Cn1nc(C(C)(C)NC(=O)c2cccc3c2OCCNC3)c2ccccc21 [Example 18],0.0044,0.0395,7.82,9.63,8.71,9.86,,1.22
Cn1nc(C(C)(C)NC(=O)c2nccc3c2OCCNC3)c2ccccc21 [Example 19],0.0146,0.613,9.45,9.6,8.62,9.75,2.17,
Cn1nc(C(C)(C)NC(=O)c2ccnc3c2OCCNC3)c2ccccc21 [Example 20],0.0175,0.574,9.45,9.6,8.62,9.75,,> 2.17
Cc1nnc(C(C)(C)NC(=O)c2cccc3c2OCCNC3)c2ccccc12 [Example 26],0.0025,0.065,9.45,9.6,8.62,9.75,,> 2.17
Cc1cccc2c(C(C)(C)NC(=O)c3cccc4c3OCCNC4)n[nH]c12 [Example 33],0.0008,0.0217,9.45,9.6,8.62,9.75,,1.65
Cn1nc(C(C)(C)NC(=O)c2cccc3c2OCCNC3)c2cccc(F)c21 [Example 39],0.0021,0.0291,9.01,9.63,8.71,9.86,,0.85
Cc1cccc2c(C(C)(C)NC(=O)c3cncc4c3OCCNC4)nn(C)c12 [Example 42],0.0158,0.532,9.45,9.6,8.62,9.75,,> 2.17
Cc1cccn2c(C(C)(C)NC(=O)c3cccc4c3OCCNC4)ncc12 [Example 47],0.002,0.0532,9.01,9.63,8.71,9.86,,> 2.17
Cc1nc(C(C)(C)NC(=O)c2cccc3c2OCCNC3)c2ccccc2n1 [Example 64],0.0223,,,,,,,> 2.17
Cc1cccn2c(C(C)(C)NC(=O)c3cccc4c3OCCNC4)cnc12 [Example 70],0.0113,,,,,,,> 2.17
Cc1cccn2c(C(C)(C)NC(=O)c3cccc4c3OCCNC4)ccc12 [Example 71],0.0029,,,,,,,0.183
Cc1cccn2c(C(C)(C)NC(=O)c3nccc4c3OCCNC4)ncc12 [Example 72],0.0136,,,,,,,> 2.17
Cc1cccn2c(C(C)(C)NC(=O)c3nccc4c3OCCNC4)nc(C)c12 [Example 75],0.0104,,,,,,,> 2.17
Cc1cccn2c(C(C)(C)NC(=O)c3ccnc4c3OCCNC4)ncc12 [Example 78],0.0336,,,,,,,> 2.17
Cc1cccn2c(C(C)(C)NC(=O)c3cncc4c3OCCNC4)ncc12 [Example 79],0.0313,,,,,,,> 2.17

# Reference: patent publication US10183940B2, “Aryl and heteroaryl-fused tetrahydro-1,4-oxazepine amides as somatostatin receptor subtype 4 (SSTR4) agonists” (Boehringer Ingelheim International GmbH, priority 2014, dated 2019)
